Reference: patent publication US8415469B2, “Compounds and methods for kinase modulation, and indications therefor” (Plexxikon Inc., priority 2005, dated 2013)

What was measured:
Assay type in all cases: biochemical
B-Raf V600E = biological target: T1, B-Raf V600E (Homo sapiens, UniProt P15056, V600E); experiment: AlphaScreen kinase assay, B-Raf V600E; details: read-out: IC50, activity toward kinase B-Raf V600E
T1 construct: P4254. pFastBacBD-CDC37 BRAF D437-K722-X, V600E; His6 with pFastBac HT leader (TEV site) (N); made in house; host or cells: Sf9 (baculovirus; chaperone CDC37 co-expressed)

Fak = biological target: T2, Fak (Homo sapiens, UniProt Q05397); experiment: AlphaScreen kinase assay, Fak; details: read-out: IC50, activity toward kinase Fak
T2 construct: P1358.pFastBacHtb FAK S411-Q686-X; His6 with pFastBacHTb leader (TEV site) (N); made in house; host or cells: Sf9 (baculovirus)

FGFR1 = biological target: T3, FGFR1 (Homo sapiens, UniProt P11362, C488A/C584S); experiment: AlphaScreen kinase assay, FGFR1; details: read-out: IC50, activity toward kinase FGFR
T3 construct: P1351.pET N6 BI-PTP FGFR A458-E765-X C488A, C584S; made in house; host or cells: E. coli (PTP1B co-expressed)

Fms = biological target: T4, Fms (Homo sapiens, UniProt P07333); experiment: AlphaScreen kinase assay, Fms; details: read-out: IC50, activity toward kinase Fms
T4 construct: purchased Upstate Biotechnology

Kit = biological target: T5, Kit (Homo sapiens, UniProt P10721); experiment: AlphaScreen kinase assay, Kit; details: read-out: IC50, activity toward kinase Kit
T5 construct: P1332.N6 BI PTP KIT M552-K948-X COD; His6 (N); made in house; host or cells: E. coli (PTP1B co-expressed)

Jnk1 = biological target: T6, Jnk1 (Homo sapiens, UniProt P45983); experiment: AlphaScreen kinase assay, Jnk1; details: read-out: IC50, activity toward kinase Jnk1
T6 construct: purchased Upstate Biotechnology

c-Raf-1 = biological target: T7, c-Raf-1 (Homo sapiens, UniProt P04049); experiment: AlphaScreen kinase assay, c-Raf-1; details: read-out: IC50, activity toward kinase c-Raf-1
T7 construct: purchased Upstate Biotechnology

Src = biological target: T8, Src (Homo sapiens, UniProt P12931); experiment: AlphaScreen kinase assay, Src; details: read-out: IC50, activity toward kinase Src
T8 construct: P1144. pET-N6 BI-PTP SRC V86-L536-X; made in house

B-Raf = biological target: T9, B-Raf (Homo sapiens, UniProt P15056); experiment: AlphaScreen kinase assay, B-Raf; details: read-out: IC50, activity toward kinase B-Raf
T9 construct: purchased Upstate Biotechnology

Jnk3 = biological target: T10, Jnk3 (Homo sapiens, UniProt P53779); experiment: AlphaScreen kinase assay, Jnk3; details: read-out: IC50, activity toward kinase Jnk3
T10 construct: purchased Upstate Biotechnology

Flt1 = biological target: T11, Flt1 (Homo sapiens, UniProt P17948); experiment: AlphaScreen kinase assay, Flt1; details: read-out: IC50, activity toward kinase Flt1
T11 construct: P1826.pETN6 BI-PTP FLT1 M799-D1165-X WT; His6 (N); made in house; host or cells: E. coli (PTP1B co-expressed)
T11 sequence (P17948 with tags, fused parts or gaps): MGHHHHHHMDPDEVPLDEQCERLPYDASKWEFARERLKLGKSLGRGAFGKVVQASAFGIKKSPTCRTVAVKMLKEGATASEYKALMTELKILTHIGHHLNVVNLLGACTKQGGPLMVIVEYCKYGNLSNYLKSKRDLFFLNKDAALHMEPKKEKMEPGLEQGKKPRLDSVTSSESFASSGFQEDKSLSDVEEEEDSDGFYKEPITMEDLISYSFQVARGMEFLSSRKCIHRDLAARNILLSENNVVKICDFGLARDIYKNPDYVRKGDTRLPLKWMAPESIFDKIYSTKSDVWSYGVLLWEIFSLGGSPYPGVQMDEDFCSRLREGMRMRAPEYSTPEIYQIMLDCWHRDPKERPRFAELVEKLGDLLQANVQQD

Kdr = biological target: T12, Kdr (Homo sapiens, UniProt P35968); experiment: Z'-Lyte FRET kinase assay (Invitrogen), Kdr; details: read-out: IC50, activity toward kinase Kdr
T12 construct: purchased Invitrogen (assay run by Invitrogen)

Ret = biological target: T13, Ret (Homo sapiens, UniProt P07949); experiment: AlphaScreen kinase assay, Ret; details: read-out: IC50, activity toward kinase Ret
T13 construct: P1378.pET-SF BI-PTP RET H661-R1012 HIS; made in house
T13 sequence (P07949 with tags, fused parts or gaps): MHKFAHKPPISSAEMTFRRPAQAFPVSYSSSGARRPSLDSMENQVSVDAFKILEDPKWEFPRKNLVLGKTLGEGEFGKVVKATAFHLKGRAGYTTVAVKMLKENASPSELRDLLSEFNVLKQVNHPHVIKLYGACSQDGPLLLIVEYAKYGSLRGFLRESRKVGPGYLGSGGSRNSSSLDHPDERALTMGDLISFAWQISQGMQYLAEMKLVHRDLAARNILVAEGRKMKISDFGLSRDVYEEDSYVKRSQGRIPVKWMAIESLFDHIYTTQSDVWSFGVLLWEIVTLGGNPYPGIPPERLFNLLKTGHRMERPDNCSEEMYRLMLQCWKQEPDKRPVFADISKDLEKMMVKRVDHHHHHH

T8 sequence (P12931 with tags, fused parts or gaps): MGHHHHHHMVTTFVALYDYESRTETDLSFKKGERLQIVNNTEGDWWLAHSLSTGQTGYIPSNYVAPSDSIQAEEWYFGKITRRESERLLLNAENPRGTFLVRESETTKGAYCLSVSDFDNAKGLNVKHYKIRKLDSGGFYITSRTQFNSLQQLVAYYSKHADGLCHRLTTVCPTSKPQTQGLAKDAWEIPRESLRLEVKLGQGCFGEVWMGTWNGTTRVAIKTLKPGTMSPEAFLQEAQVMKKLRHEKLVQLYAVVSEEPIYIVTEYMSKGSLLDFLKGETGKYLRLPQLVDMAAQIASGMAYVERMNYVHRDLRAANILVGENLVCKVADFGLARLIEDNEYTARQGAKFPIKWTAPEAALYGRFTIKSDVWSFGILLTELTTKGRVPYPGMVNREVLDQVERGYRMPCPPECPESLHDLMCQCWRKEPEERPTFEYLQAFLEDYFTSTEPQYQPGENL
T2 sequence (Q05397 411-686): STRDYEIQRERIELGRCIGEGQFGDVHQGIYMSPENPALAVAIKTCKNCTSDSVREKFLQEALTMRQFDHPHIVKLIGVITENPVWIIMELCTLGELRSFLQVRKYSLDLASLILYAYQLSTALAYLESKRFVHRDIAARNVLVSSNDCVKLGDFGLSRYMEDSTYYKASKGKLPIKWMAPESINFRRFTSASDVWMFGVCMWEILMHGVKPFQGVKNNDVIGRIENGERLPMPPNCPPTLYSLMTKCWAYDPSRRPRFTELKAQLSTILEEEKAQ
T4 sequence (P07333 20-972): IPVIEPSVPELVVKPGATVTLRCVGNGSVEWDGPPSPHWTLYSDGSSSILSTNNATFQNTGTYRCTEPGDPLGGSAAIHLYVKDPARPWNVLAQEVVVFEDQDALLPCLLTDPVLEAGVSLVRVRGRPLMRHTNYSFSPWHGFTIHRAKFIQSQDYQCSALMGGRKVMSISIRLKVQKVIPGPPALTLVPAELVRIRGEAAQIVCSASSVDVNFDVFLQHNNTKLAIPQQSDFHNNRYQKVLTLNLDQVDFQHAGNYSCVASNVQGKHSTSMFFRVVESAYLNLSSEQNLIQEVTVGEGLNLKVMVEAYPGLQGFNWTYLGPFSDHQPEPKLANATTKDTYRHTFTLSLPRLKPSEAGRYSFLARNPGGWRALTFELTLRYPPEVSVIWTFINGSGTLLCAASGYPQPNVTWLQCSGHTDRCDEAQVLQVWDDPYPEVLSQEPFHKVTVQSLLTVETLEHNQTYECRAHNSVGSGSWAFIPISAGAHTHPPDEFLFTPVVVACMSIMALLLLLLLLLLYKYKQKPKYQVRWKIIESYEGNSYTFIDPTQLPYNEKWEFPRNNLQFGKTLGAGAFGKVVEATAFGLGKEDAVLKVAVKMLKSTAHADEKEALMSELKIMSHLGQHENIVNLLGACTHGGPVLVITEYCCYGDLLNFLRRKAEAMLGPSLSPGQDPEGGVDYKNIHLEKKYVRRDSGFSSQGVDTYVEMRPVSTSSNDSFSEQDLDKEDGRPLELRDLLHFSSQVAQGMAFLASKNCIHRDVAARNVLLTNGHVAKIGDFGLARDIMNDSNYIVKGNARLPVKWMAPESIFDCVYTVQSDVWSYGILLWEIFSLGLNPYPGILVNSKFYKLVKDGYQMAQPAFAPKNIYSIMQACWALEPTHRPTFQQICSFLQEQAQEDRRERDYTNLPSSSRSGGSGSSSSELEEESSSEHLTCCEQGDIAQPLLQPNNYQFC
T9 sequence (P15056 whole entry): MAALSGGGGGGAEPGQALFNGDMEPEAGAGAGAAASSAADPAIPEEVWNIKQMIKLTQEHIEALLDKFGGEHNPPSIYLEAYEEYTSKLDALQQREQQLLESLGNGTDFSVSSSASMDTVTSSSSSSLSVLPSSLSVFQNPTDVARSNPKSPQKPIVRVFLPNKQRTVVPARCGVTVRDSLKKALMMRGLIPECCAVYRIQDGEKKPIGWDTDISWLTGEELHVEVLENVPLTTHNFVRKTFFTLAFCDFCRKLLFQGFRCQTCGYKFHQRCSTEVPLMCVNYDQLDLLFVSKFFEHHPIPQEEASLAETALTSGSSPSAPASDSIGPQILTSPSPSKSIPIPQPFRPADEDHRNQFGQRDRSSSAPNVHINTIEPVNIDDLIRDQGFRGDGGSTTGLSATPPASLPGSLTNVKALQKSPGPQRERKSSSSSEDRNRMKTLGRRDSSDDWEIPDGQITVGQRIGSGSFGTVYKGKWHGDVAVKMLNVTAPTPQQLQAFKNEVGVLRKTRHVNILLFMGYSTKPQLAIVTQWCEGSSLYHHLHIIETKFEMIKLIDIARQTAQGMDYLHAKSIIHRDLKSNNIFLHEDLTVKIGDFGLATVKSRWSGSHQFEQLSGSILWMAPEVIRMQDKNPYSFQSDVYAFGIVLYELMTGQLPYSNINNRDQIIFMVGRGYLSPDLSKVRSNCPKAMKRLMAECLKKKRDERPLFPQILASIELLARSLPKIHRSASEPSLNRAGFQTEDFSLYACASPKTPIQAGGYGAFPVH
T5 sequence (P10721 with tags, fused parts or gaps): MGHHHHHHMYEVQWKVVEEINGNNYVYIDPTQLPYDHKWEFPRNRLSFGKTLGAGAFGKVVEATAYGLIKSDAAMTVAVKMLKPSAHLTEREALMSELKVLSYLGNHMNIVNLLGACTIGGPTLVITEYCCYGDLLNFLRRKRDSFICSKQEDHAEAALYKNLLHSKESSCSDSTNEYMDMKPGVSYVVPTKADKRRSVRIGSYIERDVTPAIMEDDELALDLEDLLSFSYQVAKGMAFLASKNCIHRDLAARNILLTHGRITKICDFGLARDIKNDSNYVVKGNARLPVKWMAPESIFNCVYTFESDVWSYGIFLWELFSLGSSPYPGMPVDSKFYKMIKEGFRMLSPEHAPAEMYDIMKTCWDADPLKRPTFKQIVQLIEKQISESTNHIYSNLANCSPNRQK
T6 sequence (P45983 whole entry): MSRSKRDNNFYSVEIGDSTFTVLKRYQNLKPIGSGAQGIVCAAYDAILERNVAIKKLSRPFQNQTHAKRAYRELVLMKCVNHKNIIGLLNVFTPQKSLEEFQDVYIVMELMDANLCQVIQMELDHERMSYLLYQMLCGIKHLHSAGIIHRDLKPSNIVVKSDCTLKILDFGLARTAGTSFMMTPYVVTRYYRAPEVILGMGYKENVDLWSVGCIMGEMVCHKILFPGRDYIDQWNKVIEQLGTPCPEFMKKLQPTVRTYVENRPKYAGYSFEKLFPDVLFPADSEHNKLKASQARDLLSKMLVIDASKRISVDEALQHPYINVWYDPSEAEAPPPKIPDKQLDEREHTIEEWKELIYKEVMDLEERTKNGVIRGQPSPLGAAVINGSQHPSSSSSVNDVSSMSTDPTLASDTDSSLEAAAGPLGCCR
T3 sequence (P11362 458-765 C488A/C584S): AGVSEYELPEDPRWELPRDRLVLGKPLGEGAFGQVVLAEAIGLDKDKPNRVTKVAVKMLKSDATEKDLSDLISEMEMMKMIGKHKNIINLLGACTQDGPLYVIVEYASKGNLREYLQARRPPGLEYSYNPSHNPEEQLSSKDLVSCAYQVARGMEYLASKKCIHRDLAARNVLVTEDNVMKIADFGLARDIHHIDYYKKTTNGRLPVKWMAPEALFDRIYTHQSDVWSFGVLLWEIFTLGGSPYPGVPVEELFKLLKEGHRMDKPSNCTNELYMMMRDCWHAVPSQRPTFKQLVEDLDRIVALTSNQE
T1 sequence (P15056 with tags, fused parts or gaps V600E): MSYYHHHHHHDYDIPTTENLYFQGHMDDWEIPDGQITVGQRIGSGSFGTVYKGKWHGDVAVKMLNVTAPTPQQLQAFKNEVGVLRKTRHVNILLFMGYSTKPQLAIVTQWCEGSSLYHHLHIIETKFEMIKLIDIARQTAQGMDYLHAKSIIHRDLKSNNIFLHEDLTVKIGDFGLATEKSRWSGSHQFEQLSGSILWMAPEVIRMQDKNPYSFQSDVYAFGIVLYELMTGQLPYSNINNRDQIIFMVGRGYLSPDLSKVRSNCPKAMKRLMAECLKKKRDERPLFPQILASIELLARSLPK
T10 sequence (P53779 whole entry): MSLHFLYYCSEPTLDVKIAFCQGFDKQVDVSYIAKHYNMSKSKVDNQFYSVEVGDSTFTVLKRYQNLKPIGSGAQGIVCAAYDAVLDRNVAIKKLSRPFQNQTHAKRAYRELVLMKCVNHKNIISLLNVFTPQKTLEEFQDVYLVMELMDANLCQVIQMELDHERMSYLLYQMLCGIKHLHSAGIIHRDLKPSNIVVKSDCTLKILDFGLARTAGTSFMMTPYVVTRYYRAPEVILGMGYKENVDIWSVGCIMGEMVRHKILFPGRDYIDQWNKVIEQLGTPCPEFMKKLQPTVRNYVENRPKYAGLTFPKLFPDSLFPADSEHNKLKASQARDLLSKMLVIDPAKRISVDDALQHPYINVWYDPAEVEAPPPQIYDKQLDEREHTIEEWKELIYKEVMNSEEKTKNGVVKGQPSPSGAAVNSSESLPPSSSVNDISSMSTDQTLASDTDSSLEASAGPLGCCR

IC50 (B-Raf V600E) | IC50 (Fak) | IC50 (FGFR1) | IC50 (Fms) | IC50 (Kit) | IC50 (Jnk1) | IC50 (c-Raf-1) | IC50 (Src) | IC50 (B-Raf) | IC50 (Jnk3) | IC50 (Flt1) | IC50 (Kdr) | IC50 (Ret) | Compound
≤ 10 µM | ≤ 10 µM | ≤ 10 µM | ≤ 10 µM | ≤ 10 µM |  |  |  |  |  |  |  |  | Brc1cnc2[nH]cc(Cc3ccc4c(c3)OCCO4)c2c1 [Compound P-1474, 5-Bromo-3-(2,3-dihydro-benzo[1,4]dioxin-6-ylmethyl)-1H-pyrrolo[2,3-b]pyridine]
≤ 10 µM | ≤ 10 µM | ≤ 10 µM | ≤ 10 µM | ≤ 10 µM | ≤ 10 µM |  |  |  |  |  |  |  | O=[N+]([O-])c1cccc(Cc2c[nH]c3ncc(-c4cccnc4)cc23)c1 [Compound P-1402, 3-(3-nitro-benzyl)-5-pyridin-3-yl-1H-pyrrolo[2,3-b]pyridine]
≤ 10 µM | ≤ 10 µM | ≤ 10 µM |  | ≤ 10 µM |  | ≤ 10 µM | ≤ 10 µM |  |  |  |  |  | CCCS(=O)(=O)Nc1ccc(F)c(Cc2c[nH]c3ncc(Cl)cc23)c1F [Compound P-1396]
≤ 10 µM | ≤ 10 µM | ≤ 10 µM | ≤ 10 µM | ≤ 10 µM | ≤ 10 µM | ≤ 10 µM |  | ≤ 10 µM | ≤ 10 µM |  |  |  | COCCOc1ccc(F)c(Cc2c[nH]c3ncc(-c4cccnc4)cc23)c1F [Compound P-1458]
≤ 10 µM | ≤ 10 µM | ≤ 10 µM | ≤ 10 µM | ≤ 10 µM |  | ≤ 10 µM | ≤ 10 µM | ≤ 10 µM |  |  |  |  | CCCS(=O)(=O)Nc1ccc(F)c(C(=O)c2c[nH]c3ncc(C)cc23)c1F [Compound P-1249]
 | ≤ 10 µM |  | ≤ 10 µM | ≤ 10 µM |  |  |  |  |  | ≤ 10 µM |  |  | Clc1cc(Cl)cc(Nc2c[nH]c3ncccc23)c1 [Compound P-1502, (3,5-Dichloro-phenyl)-(1H-pyrrolo[2,3-b]pyridin-3-yl)-amine]
≤ 10 µM | ≤ 10 µM | ≤ 10 µM | ≤ 10 µM | ≤ 10 µM |  |  | ≤ 10 µM | ≤ 10 µM |  |  |  |  | CCCCS(=O)(=O)Nc1ccc(F)c(C(=O)c2c[nH]c3ncc(Br)cc23)c1F [Compound P-1263, Butane-1-sulfonic acid [3-(5-bromo-1H-pyrrolo[2,3-b]pyridine-3-carbonyl)-2,4-difluoro-phenyl]-amide]
 | ≤ 10 µM |  | ≤ 10 µM | ≤ 10 µM | ≤ 10 µM |  |  |  | ≤ 10 µM |  |  |  | CN(c1ccc(F)c(C(O)c2c[nH]c3ncc(-c4cccnc4)cc23)c1F)S(=O)(=O)c1ccc(C(F)(F)F)cc1 (centres unmarked) [Compound P-1400]
≤ 10 µM | ≤ 10 µM | ≤ 10 µM | ≤ 10 µM | ≤ 10 µM |  |  |  |  |  |  |  |  | OCCOc1ccc(F)c(Cc2c[nH]c3ncc(Br)cc23)c1F [Compound P-1392, 2-[3-(5-Bromo-1H-pyrrolo[2,3-b]pyridin-3-ylmethyl)-2,4-difluoro-phenoxy]-ethanol]
≤ 10 µM | ≤ 10 µM | ≤ 10 µM | ≤ 10 µM | ≤ 10 µM |  |  | ≤ 10 µM | ≤ 10 µM |  |  |  |  | CCCCS(=O)(=O)Nc1ccc(F)c(C(=O)c2c[nH]c3ncc(OC)cc23)c1F [Compound P-1264, Butane-1-sulfonic acid [2,4-difluoro-3-(5-methoxy-1H-pyrrolo[2,3-b]pyridine-3-carbonyl)-phenyl]-amide]
≤ 10 µM | ≤ 10 µM |  | ≤ 10 µM | ≤ 10 µM |  |  | ≤ 10 µM |  |  | ≤ 10 µM |  |  | c1ccc(Oc2ccc(Nc3c[nH]c4ncccc34)cc2)cc1 [Compound P-1495, (4-Phenoxy-phenyl)-(1H-pyrrolo[2,3-b]pyridin-3-yl)-amine]

Further lines, the molecule ahead of its results:

Compound | IC50 (B-Raf V600E) | IC50 (Fak) | IC50 (FGFR1) | IC50 (Fms) | IC50 (Kit) | IC50 (Jnk1) | IC50 (c-Raf-1) | IC50 (Src) | IC50 (B-Raf) | IC50 (Jnk3) | IC50 (Flt1) | IC50 (Kdr) | IC50 (Ret)
COc1cccc(Cc2c[nH]c3ncc(-c4cccc(NS(C)(=O)=O)c4)cc23)c1F [Compound P-1329, N-{3-[3-(2-Fluoro-3-methoxy-benzyl)-1H-pyrrolo[2,3-b]pyridin-5-yl]-phenyl}-methanesulfonamide] | ≤ 10 µM | ≤ 10 µM | ≤ 10 µM | ≤ 10 µM | ≤ 10 µM |  |  |  |  |  |  |  | 
O=C(Nc1ccc(F)c(C(=O)c2c[nH]c3ncc(Br)cc23)c1F)OCc1ccccc1 [Compound P-1457] | ≤ 10 µM | ≤ 10 µM |  | ≤ 10 µM | ≤ 10 µM |  |  | ≤ 10 µM | ≤ 10 µM |  | ≤ 10 µM |  | 
COc1ccc(Cc2c[nH]c3ncc(-c4cccc(C(N)=O)c4)cc23)c(F)c1 [Compound P-1341] | ≤ 10 µM | ≤ 10 µM | ≤ 10 µM | ≤ 10 µM | ≤ 10 µM |  |  |  | ≤ 10 µM |  |  |  | 
COCCOc1ccc(F)c(C(=O)c2c[nH]c3ncc(-c4cccnc4)cc23)c1F [Compound P-1456, [2,6-Difluoro-3-(2-methoxy-ethoxy)-phenyl]-(5-pyridin-3-yl-1H-pyrrolo[2,3-b]pyridin-3-yl)-methanone] | ≤ 10 µM | ≤ 10 µM | ≤ 10 µM | ≤ 10 µM | ≤ 10 µM | ≤ 10 µM | ≤ 10 µM |  | ≤ 10 µM |  |  |  | 
O=C(c1ccccc1F)c1c[nH]c2ncc(Br)cc12 [Compound P-0293] | ≤ 10 µM | ≤ 10 µM | ≤ 10 µM | ≤ 10 µM | ≤ 10 µM |  |  |  | ≤ 10 µM |  |  | ≤ 10 µM | ≤ 10 µM
FC(F)(F)Oc1ccc(Nc2c[nH]c3ncccc23)cc1 [Compound P-1492, (1H-Pyrrolo[2,3-b]pyridin-3-yl)-(4-trifluoromethoxy-phenyl)-amine] |  | ≤ 10 µM |  | ≤ 10 µM |  |  |  |  |  |  | ≤ 10 µM |  | 
COCCOc1ccc(F)c(C(O)c2c[nH]c3ncc(Br)cc23)c1F (centres unmarked) [Compound P-1452] | ≤ 10 µM | ≤ 10 µM | ≤ 10 µM | ≤ 10 µM | ≤ 10 µM |  | ≤ 10 µM |  | ≤ 10 µM |  |  |  | 
CCCS(=O)(=O)Nc1ccc(F)c(C(=O)c2c[nH]c3ncc(-c4ccc(N(C)C)cc4)cc23)c1F [Compound P-0889, Propane-1-sulfonic acid {3-[5-(4-dimethylamino-phenyl)-1H-pyrrolo[2,3-b]pyridine-3-carbonyl]-2,4-difluoro-phenyl}-amide] | ≤ 10 µM | ≤ 10 µM | ≤ 10 µM |  | ≤ 10 µM |  | ≤ 10 µM | ≤ 10 µM | ≤ 10 µM |  |  |  | 
Clc1cccc(Cl)c1Cc1c[nH]c2ncc(-c3cccnc3)cc12 [Compound P-1478, 3-(2,6-Dichloro-benzyl)-5-pyridin-3-yl-1H-pyrrolo[2,3-b]pyridine] | ≤ 10 µM | ≤ 10 µM | ≤ 10 µM | ≤ 10 µM | ≤ 10 µM |  |  | ≤ 10 µM |  |  |  |  | 
c1cc2ccc(Nc3ccc(N4CCCCC4)cc3)nc2[nH]1 [Compound P-1359, (4-Piperidin-1-yl-phenyl)-(1H-pyrrolo[2,3-b]pyridin-6-yl)-amine] |  | ≤ 10 µM |  |  |  | ≤ 10 µM |  |  |  | ≤ 10 µM |  |  | 
